Assay results as given in patent EP4703359A1 (Shanghai Simr Biotechnology Co., Ltd., priority 2023, dated 2024).
Structures can show the parent of a compound that is named as a salt.

The compounds below were run against T1, α2-GABAA receptor (Homo sapiens, UniProt P18507+P47869) (assay: Whole-cell patch-clamp electrophysiology, positive allosteric modulatory activity in α2-GABAAR-HEK293 cells). Conditions: compound 100 nM; GABA 0.10 to 0.11 µM (approximately EC7-8); normalized to reference compound CVL-865 (= 100%).
T1 construct: expressed in transfected cells
T1 sequence (P47869 29-451): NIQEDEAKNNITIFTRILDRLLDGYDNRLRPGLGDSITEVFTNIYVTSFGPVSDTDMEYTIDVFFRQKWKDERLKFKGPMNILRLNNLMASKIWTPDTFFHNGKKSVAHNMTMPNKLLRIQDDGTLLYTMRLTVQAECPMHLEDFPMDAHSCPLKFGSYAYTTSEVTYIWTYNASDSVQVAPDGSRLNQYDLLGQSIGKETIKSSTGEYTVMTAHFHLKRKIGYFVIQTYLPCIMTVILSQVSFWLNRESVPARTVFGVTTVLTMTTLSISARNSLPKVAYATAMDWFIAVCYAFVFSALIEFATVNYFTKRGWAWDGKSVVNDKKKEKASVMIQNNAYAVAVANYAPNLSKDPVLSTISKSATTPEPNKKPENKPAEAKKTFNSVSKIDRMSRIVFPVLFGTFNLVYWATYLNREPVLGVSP
T1 sequence (P18507 40-467 isoform P18507-1 limits assumed): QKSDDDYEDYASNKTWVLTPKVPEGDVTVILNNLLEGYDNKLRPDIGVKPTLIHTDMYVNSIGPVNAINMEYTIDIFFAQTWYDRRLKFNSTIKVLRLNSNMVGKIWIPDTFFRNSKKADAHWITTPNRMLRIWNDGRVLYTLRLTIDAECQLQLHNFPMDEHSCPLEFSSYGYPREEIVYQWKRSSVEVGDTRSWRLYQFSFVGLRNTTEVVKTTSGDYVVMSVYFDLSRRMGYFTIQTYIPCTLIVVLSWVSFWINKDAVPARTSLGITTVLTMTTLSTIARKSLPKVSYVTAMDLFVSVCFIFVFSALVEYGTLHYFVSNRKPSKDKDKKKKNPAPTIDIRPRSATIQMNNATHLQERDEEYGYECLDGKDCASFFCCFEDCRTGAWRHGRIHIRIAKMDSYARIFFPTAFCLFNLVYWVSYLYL
T1 sequence (P28472 26-473 partner): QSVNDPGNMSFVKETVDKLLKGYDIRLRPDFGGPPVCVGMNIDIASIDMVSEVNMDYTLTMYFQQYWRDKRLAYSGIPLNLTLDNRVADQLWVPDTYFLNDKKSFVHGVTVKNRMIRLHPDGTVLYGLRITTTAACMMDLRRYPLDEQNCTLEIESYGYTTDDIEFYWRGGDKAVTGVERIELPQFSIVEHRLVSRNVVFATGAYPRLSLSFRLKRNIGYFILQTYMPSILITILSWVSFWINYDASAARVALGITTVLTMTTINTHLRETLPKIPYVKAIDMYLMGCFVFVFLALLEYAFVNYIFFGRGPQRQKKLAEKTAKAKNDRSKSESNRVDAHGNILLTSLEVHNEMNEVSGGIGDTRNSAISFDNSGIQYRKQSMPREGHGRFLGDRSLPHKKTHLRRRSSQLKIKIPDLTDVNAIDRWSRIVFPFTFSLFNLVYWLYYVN
Type: cell-based
Text: The α subunit, β subunit, and γ subunit are indispensable for forming a fully functional GABAA receptor. In this example, HEK293 cells stably expressing α2-GABAA receptors (α2-GABAAR) were constructed and screened respectively via liposome transfection (Felgner, P.L., et al. Proceedings of the National Academy of Sciences, 1987, 84: 7413-7417). The α2-GABAAR-HEK293 cell model co-expresses the α2 subunit (protein sequence referenced under GenBank accession number: NM_000807.4), β3 subunit (protein sequence referenced under GenBank accession number: NM_000814.5), and γ2 subunit (protein sequence referenced under GenBank accession number: NM_000816.3).
The above cell lines were subcultured. α2-GABAAR-HEK293 cells were amplified for testing the affinity of compounds to the benzodiazepine (BZD) site of GABAA receptors. Some of the α2-GABAAR-HEK293 cells in suspension during subculturing were plated on glass slides pre-treated with Poly-D-Lysine for electrophysiological testing (method reference: Patent CN 107344936 A, paragraph 0586).
The positive modulatory activity of the test drug on the α2-GABAA receptor was assessed using electrophysiological methods. The specific approach is as follows:
With regards to the concentration of the compound, the final concentration of all compounds used in the screening was 100 nM. For cell lines expressing α2-GABAA receptors, the GABA concentration was 0.10 to 0.11 µM (approximately EC7-8). Electrophysiological experiments were conducted using the whole-cell patch-clamp technique, which can be referenced to the method reported in the literature (Nickolls, S. A., et al. *British Journal of Pharmacology*, 2018, 175: 708-725). The composition of the extracellular solution (ECS) for electrophysiology was as follows: 150 mM NaCl, 5 mM KCl, 2.5 mM CaCl2, 1 mM MgCl2, 10 mM HEPES, and 10 mM glucose (pH 7.4). The intracellular solution (ICS) for electrophysiology was formulated as follows: 140 mM CsCl, 11 mM EGTA, 10 mM HEPES, 2 mM CaCl2, 1 mM MgCl2, 4 mM MgATP, and 2 mM TEA (pH 7.3). GABA (γ-aminobutyric acid) powder was dissolved in pure water to prepare a stock solution, which was subsequently diluted in ECS. The compound was initially dissolved in dimethyl sulfoxide to prepare a 4 mM stock solution, followed by stepwise dilution into GABA-ECS at corresponding concentrations. All solutions were freshly prepared prior to electrophysiological testing.
Electrophysiological signals were acquired using an EPC 10 amplifier and PatchMaster software (HEKA) or an Axon 700B amplifier and Clampex software (AXON). The recording electrode was pulled from borosilicate glass, with an electrode resistance of 4 to 6 MΩ. Extracellular administration was performed using the ALA-VC-8PG™ system. A single independently growing cell was selected. After forming a tight seal between the glass electrode and the cell membrane, the membrane was ruptured to establish the whole-cell configuration. The cell membrane potential was clamped at -60 mV and recorded in Gap-free mode. During the test, extracellular fluid was first applied externally for approximately 20 seconds. After the baseline (Iprebaseline) was stabilized, the extracellular solution was switched to GABA-ECS. At this point, the current induced by GABA (Igaba) can be detected. After approximately 10 to 20 seconds, once the current had stabilized, the extracellular solution was switched to a mixture of the compound and GABA-ECS until the current induced by both the compound and GABA (Itreatment) could be detected. Finally, the solution was switched to extracellular fluid, and the recording was terminated after 20 to 40 seconds. Only cells with a stable baseline, an absolute control current magnitude (Igaba - Iprebaseline) greater than 40 pA, and a relatively stable current within 10 to 20 seconds were used for compound testing. […]
In the case of `CCCNC(=O)c1nc2c(-c3cc4ncoc4cc3F)cccn2c1N` [Example 98], the “α2-GABAAR Positive allosteric modulatory activity” value is reported as 64%. For `COc1cccc(F)c1-c1c(F)ccn2c(N)c(C(=O)NCCC(F)(F)F)nc12` [Example 125, 3-Amino-7-fluoro-8-(2-fluoro-6-methoxyphenyl)-N-(3,3,3-trifluoropropyl)propylimidazo[1,2-a]pyridine-2-carboxamide], the “α2-GABAAR Positive allosteric modulatory activity” value was 70%. `[2H]c1ccc(-c2c(F)cccc2OC)c2nc(C(=O)NCCC)c(N)n12` [Example 156, 3-amino-8-(2-fluoro-6-methoxyphenyl)-N-propylimidazo[1,2-a]pyridine-5-deuterium-2-carboxamide] was tested, and the “α2-GABAAR Positive allosteric modulatory activity” value was 100%. For `[2H]c1cc(-c2c(F)cccc2OC)c2nc(C(=O)NCCC)c(N)n2c1` [Example 154, 3-Amino-8-(2-fluoro-6-methoxyphenyl)-N-propylimidazo[1,2-a]pyridine-6-deuterio-2-carboxamide], the “α2-GABAAR Positive allosteric modulatory activity” value was 84%. With `CCCNC(=O)c1nc2c(-c3cc(F)c4ocnc4c3)cccn2c1N` [Example 99] the “α2-GABAAR Positive allosteric modulatory activity” value was 31%.

Same assay, conditions: compound 100 nM; GABA 0.10 to 0.11 µM (approximately EC7-8); normalized to reference compound CVL-865 (= 100%); read-out: α2-GABAAR Positive allosteric modulatory activity
`CCCNC(=O)c1nc2c(-c3c(F)cccc3OC(F)(F)F)cccn2c1N` [Example 75, 3-Amino-8-(2-fluoro-6-(trifluoromethoxy)phenyl)-N-propylimidazo[1,2-a]pyridine-2-carboxamide] gave an Emax at 0.1 µM of 101%. With `CCCNC(=O)c1nc2c(-c3cn4ccnc4cc3OC)cccn2c1N` [Example 94, 3'-Amino-7-methoxy-N-propyl-[6,8'-diimidazo[1,2-a]pyridine]-2'-carboxamide] the Emax at 0.1 µM was 51%. `CCCNC(=O)c1nc2c(-c3c(F)cccc3OC)c(C)ccn2c1N` [Example 132, 3-Amino-8-(2-fluoro-6-methoxyphenyl)-7-methyl-N-propylimidazo[1,2-a]pyridine-2-carboxamide] was tested, and the Emax at 0.1 µM was 48%. `CCCNC(=O)c1nc2c(-c3c(F)ccc4c3OCC4)cccn2c1N` [Example 106, 3-Amino-8-(6-fluoro-2,3-dihydrobenzofuran-7-yl)-N-propylimidazo[1,2-a]pyridine-2-carboxamide] was tested, and the Emax at 0.1 µM was 100%. With `CCCNC(=O)c1nc2c(-c3c(OC)ccc4ccc(F)cc34)cccn2c1N` [Example 107, 3-Amino-8-(7-fluoro-2-methoxynaphthalen-1-yl)-N-propylimidazo[1,2-a]pyridine-2-carboxamide] the Emax at 0.1 µM was 90%. For `CCCNC(=O)c1nc2c(-c3cccc(C#N)c3)c(F)ccn2c1N` [Example 126, 3-Amino-8-(3-cyanophenyl)-7-fluoro-N-propylimidazo[1,2-a]pyridine-2-carboxamide], the Emax at 0.1 µM was 99%. `CCCNC(=O)c1nc2c(-c3cccnc3F)cccn2c1N` [Example 90, 3-Amino-8-(2-fluoropyridin-3-yl)-N-propylimidazo[1,2-a]pyridine-2-carboxamide] was tested, and the Emax at 0.1 µM was 60%. `CCCNC(=O)c1nc2c(-c3cc(OC)ccc3OC)c(F)ccn2c1N` [Example 111] showed an Emax at 0.1 µM of 77%. `CCCNC(=O)c1nc2c(-c3cc4c(cc3OC)N(C)CCO4)cccn2c1N` [Example 92, 3-Amino-8-(6-methoxy-4-methyl-3,4-dihydro-2H-benzo[b][1,4]oxazin-7-yl)-N-propylimidazo[1,2-a]pyridine-2-carboxamide] showed an Emax at 0.1 µM of 33%. With `CCCNC(=O)c1nc2c(-c3cc4cccnc4cc3OC)cccn2c1N` [Example 97, 3-Amino-8-(7-methoxyquinolin-6-yl)-N-propylimidazo[1,2-a]pyridine-2-carboxamide] the Emax at 0.1 µM was 52%. For `CCCNC(=O)c1nc2c(-c3c(F)ccc4ccc(OC)cc34)cccn2c1N` [Example 108, 3-Amino-8-(2-fluoro-7-methoxynaphthalen-1-yl)-N-propylimidazo[1,2-a]pyridine-2-carboxamide], the Emax at 0.1 µM was 50%. For `CCCNC(=O)c1nc2c(-c3ccc(F)cc3OC)c(F)ccn2c1N` [Example 121, 3-Amino-7-fluoro-8-(4-fluoro-2-methoxyphenyl)-N-propylimidazo[1,2-a]pyridine-2-carboxamide], the Emax at 0.1 µM was 88%. `CCn1cnc2c(-c3ccc(F)c(-c4ccc(S(=O)(=O)CC)cc4OC)c3)cnnc21` [CVL-865, reference compound] was tested, and the Emax at 0.1 µM was 100%. With `CCCNC(=O)c1nc2c(-c3cc4cn(C)nc4cc3OC)cccn2c1N` [Example 96, 3-Amino-8-(6-methoxy-2-methyl-2H-indazol-5-yl)-N-propylimidazo[1,2-a]pyridine-2-carboxamide] the Emax at 0.1 µM was 52%. `CC#Cc1cccc(-c2cccn3c(N)c(C(=O)NCCC)nc23)c1` [Example 40, 3-Amino-8-(3-(prop-1-yn-1-yl)phenyl)-N-propylimidazo[1,2-a]pyridine-2-carboxamide] gave an Emax at 0.1 µM of 25%. `C#CCNC(=O)c1nc2c(-c3c(F)cccc3OC)cccn2c1N` [Example 31, N-Propargyl-3-amino-8-(2-fluoro-6-methoxyphenyl)imidazo[1,2-a]pyridine-2-carboxamide] gave an Emax at 0.1 µM of 26%. Compound `CCCNC(=O)c1nc2c(-c3cc4oc(=O)n(C)c4cc3OC)cccn2c1N` [Example 93, 3-Amino-8-(5-methoxy-3-methyl-2-oxo-2,3-dihydrobenzo[d]oxazol-6-yl)-N-propylimidazo[1,2-a]pyridine-2-carboxamide] has an Emax at 0.1 µM of 62%. With `CCNC(=O)c1nc2c(-c3c(F)cccc3OC)cccn2c1N` [Example 2, 3-Amino-8-(2-fluoro-6-methoxyphenyl)-N-ethylimidazo[1,2-a]pyridine-2-carboxamide] the Emax at 0.1 µM was 35%. With `CCCNC(=O)c1nc2c(-c3cccnc3F)c(F)ccn2c1N` [Example 112, 3-Amino-7-fluoro-8-(2-fluoropyridin-3-yl)-N-propylimidazo[1,2-a]pyridine-2-carboxamide] the Emax at 0.1 µM was 53%. `CCCNC(=O)c1nc2c(-c3c(F)cccc3SC)cccn2c1N` [Example 74, 3-Amino-8-(2-fluoro-6-(methylthio)phenyl)-N-propylimidazo[1,2-a]pyridine-2-carboxamide] gave an Emax at 0.1 µM of 73%. With `CCCNC(=O)c1nc2c(-c3cncc(C#N)c3)cccn2c1N` [Example 88, 3-Amino-8-(5-cyanopyridin-3-yl)-N-propylimidazo[1,2-a]pyridine-2-carboxamide] the Emax at 0.1 µM was 63%. For `CCCNC(=O)c1nc2c(-c3ccnc(C#N)c3)cccn2c1N` [Example 89, 3-Amino-8-(2-cyanopyridin-4-yl)-N-propylimidazo[1,2-a]pyridine-2-carboxamide], the Emax at 0.1 µM was 44%. Compound `CCCNC(=O)c1nc2c(-c3c(F)ccc(Cl)c3OC)cccn2c1N` [Example 80, 3-Amino-8-(2-fluoro-6-methoxyphenyl-5-chloro)-N-propylimidazo[1,2-a]pyridine-2-carboxamide] has an Emax at 0.1 µM of 77%. `CCCNC(=O)c1nc2c(-c3cc(F)cc(F)c3)c(F)ccn2c1N` [Example 113, 3-Amino-8-(3,5-difluorophenyl)-7-fluoro-N-propylimidazo[1,2-a]pyridine-2-carboxamide] showed an Emax at 0.1 µM of 49%. With `CCCNC(=O)c1nc2c(-c3c(F)cccc3OC)c(C(F)F)ccn2c1N` [Example 128, 3-Amino-7-(difluoromethyl)-8-(2-fluoro-6-methoxyphenyl)-N-propylimidazo[1,2-a]pyridine-2-carboxamide] the Emax at 0.1 µM was 49%.

Same assay, conditions: read-out: α2-GABAAR Positive allosteric modulatory activity
For `CCCNC(=O)c1nc2c(CC(C)C)cccn2c1N` [Example 143, 3-Amino-8-isobutyl-N-propylimidazo[1,2-a]pyridine-2-carboxamide hydrochloride], the Emax at 0.1 µM was 48%.
